Measured values reported in the CheMixHub viscosity set.

Experiment: xn = mol fraction of the nth substance listed

C=CC#N + CCCCOC(C)=O
viscosity [mPa·s]
Conditions | 298.15 K | 303.15 K | 308.15 K
101.3 kPa, x1 = 0.0988 | – | 0.6248 | –
101.3 kPa, x1 = 0.2033 | – | 0.5998 | –
101.3 kPa, x1 = 0.3022 | – | 0.5737 | –
101.3 kPa, x1 = 0.401 | – | 0.5437 | –
101.3 kPa, x1 = 0.4962 | – | 0.5133 | –
101.3 kPa, x1 = 0.5941 | – | 0.4775 | –
101.3 kPa, x1 = 0.6991 | – | 0.4364 | –
101.3 kPa, x1 = 0.7966 | – | 0.3951 | –
101.3 kPa, x1 = 0.8992 | – | 0.3527 | –
101.33 kPa, x1 = 0.099 | 0.651 | 0.607 | 0.571
101.33 kPa, x1 = 0.1971 | 0.626 | 0.582 | 0.547
101.33 kPa, x1 = 0.2999 | 0.596 | 0.553 | 0.522
101.33 kPa, x1 = 0.404 | 0.561 | 0.524 | 0.494
101.33 kPa, x1 = 0.5006 | 0.526 | 0.49 | 0.464
101.33 kPa, x1 = 0.5992 | 0.488 | 0.458 | 0.433
101.33 kPa, x1 = 0.7004 | 0.449 | 0.421 | 0.398
101.33 kPa, x1 = 0.8014 | 0.412 | 0.384 | 0.365
101.33 kPa, x1 = 0.9031 | 0.374 | 0.349 | 0.33

C=CC#N + c1ccccc1
307.4 K, 101.33 kPa
Conditions | viscosity [mPa·s]
x2 = 0.0966 | 0.494
x2 = 0.2512 | 0.448
x2 = 0.4788 | 0.395
x2 = 0.5188 | 0.386
x2 = 0.6633 | 0.357
x2 = 0.8844 | 0.32

CN(C)c1ccccc1 + CC(C)CO
303.15 K, 101 kPa
Conditions | viscosity [mPa·s]
x1 = 0.0545 | 2.804
x1 = 0.1056 | 2.755
x1 = 0.1875 | 2.663
x1 = 0.2546 | 2.576
x1 = 0.3526 | 2.434
x1 = 0.4278 | 2.316
x1 = 0.5047 | 2.189
x1 = 0.5869 | 2.044
x1 = 0.6514 | 1.926
x1 = 0.7348 | 1.767
x1 = 0.8025 | 1.628
x1 = 0.8621 | 1.501
x1 = 0.9285 | 1.345

[2H]O[2H] + [Cl-].[K+]
viscosity [mPa·s], 101 kPa
Conditions | x2 = 0.005 | x2 = 0.01 | x2 = 0.022 | x2 = 0.04 | x2 = 0.064
298.15 K | 1.095 | 1.08 | 1.076 | 1.089 | 1.101
308.15 K | 0.868 | 0.859 | 0.871 | 0.889 | 0.912
318.15 K | 0.714 | 0.709 | 0.732 | 0.755 | 0.784

C=CC#N + CCCCCO
viscosity [mPa·s], 101.33 kPa
Conditions | x1 = 0.1032 | x1 = 0.2077 | x1 = 0.3006 | x1 = 0.4053 | x1 = 0.5035 | x1 = 0.6091 | x1 = 0.7025 | x1 = 0.8042 | x1 = 0.9004
298.15 K | 2.405 | 1.777 | 1.384 | 1.064 | 0.847 | 0.668 | 0.558 | 0.464 | 0.401
303.15 K | 2.107 | 1.58 | 1.24 | 0.965 | 0.774 | 0.619 | 0.52 | 0.436 | 0.382
308.15 K | 1.86 | 1.413 | 1.122 | 0.879 | 0.715 | 0.577 | 0.488 | 0.416 | 0.364

CCCCN(CCCC)CCCC + C=C(C)C(=O)OC
303.15 K, 101 kPa
Conditions | viscosity [mPa·s]
x2 = 0.21 | 0.9849
x2 = 0.3945 | 0.8491
x2 = 0.4886 | 0.7874
x2 = 0.6041 | 0.7144
x2 = 0.7985 | 0.6078

O=C1c2ccccc2C(=O)C1(O)O + CCCCCCCCCO
101.3 kPa, x1 = 0.25
Conditions | viscosity [mPa·s]
293.15 K | 38.14
298.15 K | 27.87
303.15 K | 21.73
308.15 K | 17.37
313.15 K | 13.74
318.15 K | 11.01
323.15 K | 9.139

O=C[C@@H](O)[C@@H](O)[C@H](O)[C@H](O)CO + O
viscosity [mPa·s], 101 kPa
Conditions | 293.15 K | 303.15 K | 308.15 K | 313.15 K
x1 = 0.0026 | 1.052 | 0.8259 | – | 0.6702
x1 = 0.005 | 1.116 | 0.8625 | 0.7717 | 0.6965

CCC(C)(C)O + COc1ccccc1
viscosity [mPa·s], 101.33 kPa
Conditions | x2 = 0.1 | x2 = 0.2 | x2 = 0.2997 | x2 = 0.4001 | x2 = 0.5007 | x2 = 0.5997 | x2 = 0.7012 | x2 = 0.8005 | x2 = 0.9
303.15 K | 2.246 | 1.792 | 1.463 | 1.232 | 1.079 | 0.988 | 0.941 | 0.922 | 0.917
313.15 K | 1.623 | 1.339 | 1.125 | 0.976 | 0.885 | 0.831 | 0.808 | 0.799 | 0.792
323.15 K | 1.206 | 1.023 | 0.885 | 0.798 | 0.751 | 0.73 | 0.719 | 0.709 | 0.697

CN(C)c1ccccc1 + CCCCO
303.15 K, 101 kPa
Conditions | viscosity [mPa·s]
x1 = 0.0489 | 2.2
x1 = 0.0742 | 2.187
x1 = 0.1249 | 2.156
x1 = 0.1802 | 2.12
x1 = 0.2362 | 2.079
x1 = 0.265 | 2.056
x1 = 0.2944 | 2.032
x1 = 0.3549 | 1.978
x1 = 0.419 | 1.915
x1 = 0.4854 | 1.844
x1 = 0.5905 | 1.722
x1 = 0.7423 | 1.526
x1 = 0.9099 | 1.295

CCCCC(C)O (stereo not given) + CO
298.15 K, 101.33 kPa
Conditions | viscosity [mPa·s]
x2 = 0.1062 | 3.747
x2 = 0.2053 | 3.337
x2 = 0.3128 | 2.892
x2 = 0.412 | 2.43
x2 = 0.5053 | 2.04
x2 = 0.6071 | 1.647
x2 = 0.703 | 1.315
x2 = 0.8146 | 0.9858
x2 = 0.9006 | 0.7707

C=CC#N + CO
viscosity [mPa·s], 101.33 kPa
Conditions | x1 = 0.1021 | x1 = 0.2197 | x1 = 0.302 | x1 = 0.4017 | x1 = 0.5035 | x1 = 0.6614 | x1 = 0.6991 | x1 = 0.7966 | x1 = 0.8985
298.15 K | 0.483 | 0.435 | 0.41 | 0.388 | 0.367 | 0.351 | 0.346 | 0.34 | 0.338
303.15 K | 0.453 | 0.41 | 0.387 | 0.367 | 0.354 | 0.337 | 0.329 | 0.325 | 0.322
308.15 K | 0.428 | 0.387 | 0.366 | 0.348 | 0.331 | 0.318 | 0.315 | 0.311 | 0.309

C=CC#N + ClC(Cl)(Cl)Cl
viscosity [mPa·s], 101 kPa
Conditions | 293.15 K | 298.15 K | 303.15 K | 313.15 K | 323.15 K
x1 = 0.007 | 0.988 | 0.911 | 0.847 | 0.749 | 0.671
x1 = 0.028 | 0.979 | 0.903 | 0.841 | 0.772 | 0.695
x1 = 0.126 | 0.853 | 0.783 | 0.721 | 0.661 | 0.616

CCCCN(CCCC)CCCC + CCCCCCCCO
viscosity [mPa·s], 101.3 kPa
Conditions | x1 = 0.0904 | x1 = 0.1906 | x1 = 0.2864 | x1 = 0.4192 | x1 = 0.5184 | x1 = 0.6196 | x1 = 0.7144 | x1 = 0.8124 | x1 = 0.8987
303.15 K | 5.287 | 4.464 | 3.765 | 2.935 | 2.43 | 2.025 | 1.723 | 1.487 | 1.33
313.15 K | 3.767 | 3.171 | 2.698 | 2.185 | 1.872 | 1.619 | 1.424 | 1.25 | 1.128

CC(C)(C)Br + CCC(C)O
viscosity [mPa·s], 101.3 kPa
Conditions | x1 = 0.1001 | x1 = 0.2023 | x1 = 0.3034 | x1 = 0.4041 | x1 = 0.5076 | x1 = 0.605 | x1 = 0.7049 | x1 = 0.8014 | x1 = 0.8997
298.15 K | 2.174 | 1.629 | 1.302 | 1.105 | 0.9569 | 0.876 | 0.8006 | 0.768 | 0.7327
313.15 K | 1.386 | 1.108 | 0.9333 | 0.8074 | 0.7201 | 0.6655 | 0.6235 | 0.6023 | 0.5859

[2H]O[2H] + CO
298.15 K, 101 kPa
Conditions | viscosity [mPa·s]
x2 = 0.0449 | 1.386
x2 = 0.0748 | 1.535
x2 = 0.1437 | 1.783
x2 = 0.2044 | 1.893
x2 = 0.3143 | 1.872
x2 = 0.4238 | 1.711

C=CC#N + CCCOC(C)=O
viscosity [mPa·s], 101.33 kPa
Conditions | x1 = 0.1052 | x1 = 0.1835 | x1 = 0.2994 | x1 = 0.4057 | x1 = 0.4982 | x1 = 0.6097 | x1 = 0.7023 | x1 = 0.8019 | x1 = 0.901
298.15 K | 0.54 | 0.524 | 0.5 | 0.479 | 0.459 | 0.435 | 0.411 | 0.387 | 0.362
303.15 K | 0.504 | 0.489 | 0.47 | 0.452 | 0.434 | 0.411 | 0.391 | 0.368 | 0.345
308.15 K | 0.472 | 0.46 | 0.442 | 0.428 | 0.411 | 0.392 | 0.372 | 0.352 | 0.331

CC(C)(C)Br + CC(C)(C)O
viscosity [mPa·s], 101.3 kPa
Conditions | x1 = 0.1003 | x1 = 0.2034 | x1 = 0.3015 | x1 = 0.4024 | x1 = 0.5028 | x1 = 0.6049 | x1 = 0.705 | x1 = 0.7981 | x1 = 0.8958
298.15 K | 2.648 | 1.858 | 1.458 | 1.208 | 1.026 | 0.9136 | 0.8363 | 0.7868 | 0.7483
313.15 K | 1.504 | 1.165 | 0.9832 | 0.8491 | 0.7568 | 0.6855 | 0.6408 | 0.6119 | 0.595

Cc1ccc(C(C)C)cc1 + COC(C)(C)C
298.15 K, 101.33 kPa
Conditions | viscosity [mPa·s]
x2 = 0.0616 | 0.7751
x2 = 0.1556 | 0.7225
x2 = 0.3301 | 0.6338
x2 = 0.4987 | 0.5524
x2 = 0.5665 | 0.5253
x2 = 0.6911 | 0.4605
x2 = 0.7665 | 0.4272
x2 = 0.8304 | 0.3998
x2 = 0.8734 | 0.3814
x2 = 0.9298 | 0.3583
x2 = 0.9644 | 0.3467
